The source made the active and inactive calls. The calls are words filed in the database; no cut-off is given here.
How the values were obtained:
[1] = molecular target: Tyrosine-protein kinase ABL1 (Homo sapiens) (UniProt P00519); assay: Inhibition of human Abl assessed as remaining activity at 0.1 uM after 40 mins in presence of [gamma33P-ATP] by scintillation counting
[2] = molecular target: Tyrosine-protein kinase ABL1 (Homo sapiens) (UniProt P00519); assay: Inhibition of human Abl assessed as remaining activity at 1 uM after 40 mins in presence of [gamma33P-ATP] by scintillation counting
[3] = molecular target: Proto-oncogene tyrosine-protein kinase Src (Homo sapiens) (UniProt P12931); assay: Inhibition of human c-Src assessed as remaining activity at 0.1 uM after 40 mins in presence of [gamma33P-ATP] by scintillation counting
Proto-oncogene tyrosine-protein kinase Src (Homo sapiens), sequence (P12931 2-536 limits assumed): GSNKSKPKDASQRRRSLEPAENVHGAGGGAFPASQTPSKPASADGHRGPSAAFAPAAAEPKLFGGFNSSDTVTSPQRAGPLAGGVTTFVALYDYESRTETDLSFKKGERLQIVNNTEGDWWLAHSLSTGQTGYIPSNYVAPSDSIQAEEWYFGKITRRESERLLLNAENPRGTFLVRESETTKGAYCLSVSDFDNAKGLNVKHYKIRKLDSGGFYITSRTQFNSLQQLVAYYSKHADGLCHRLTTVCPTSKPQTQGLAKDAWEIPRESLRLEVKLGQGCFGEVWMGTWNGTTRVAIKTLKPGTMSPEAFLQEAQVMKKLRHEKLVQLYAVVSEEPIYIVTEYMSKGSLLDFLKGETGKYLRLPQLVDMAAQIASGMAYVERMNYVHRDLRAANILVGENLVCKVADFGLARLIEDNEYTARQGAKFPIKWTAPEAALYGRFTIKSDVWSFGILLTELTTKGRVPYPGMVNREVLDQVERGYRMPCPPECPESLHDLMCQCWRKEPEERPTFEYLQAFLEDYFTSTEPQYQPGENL

[4] = molecular target: Proto-oncogene tyrosine-protein kinase Src (Homo sapiens) (UniProt P12931); assay: Inhibition of human c-Src assessed as remaining activity at 1 uM after 40 mins in presence of [gamma33P-ATP] by scintillation counting
[5] = molecular target: Receptor-type tyrosine-protein kinase FLT3 (Homo sapiens) (UniProt P36888); assay: Inhibition of human Flt3 assessed as remaining activity at 0.1 uM after 40 mins in presence of [gamma33P-ATP] by scintillation counting
Receptor-type tyrosine-protein kinase FLT3 (Homo sapiens), sequence (P36888 whole entry): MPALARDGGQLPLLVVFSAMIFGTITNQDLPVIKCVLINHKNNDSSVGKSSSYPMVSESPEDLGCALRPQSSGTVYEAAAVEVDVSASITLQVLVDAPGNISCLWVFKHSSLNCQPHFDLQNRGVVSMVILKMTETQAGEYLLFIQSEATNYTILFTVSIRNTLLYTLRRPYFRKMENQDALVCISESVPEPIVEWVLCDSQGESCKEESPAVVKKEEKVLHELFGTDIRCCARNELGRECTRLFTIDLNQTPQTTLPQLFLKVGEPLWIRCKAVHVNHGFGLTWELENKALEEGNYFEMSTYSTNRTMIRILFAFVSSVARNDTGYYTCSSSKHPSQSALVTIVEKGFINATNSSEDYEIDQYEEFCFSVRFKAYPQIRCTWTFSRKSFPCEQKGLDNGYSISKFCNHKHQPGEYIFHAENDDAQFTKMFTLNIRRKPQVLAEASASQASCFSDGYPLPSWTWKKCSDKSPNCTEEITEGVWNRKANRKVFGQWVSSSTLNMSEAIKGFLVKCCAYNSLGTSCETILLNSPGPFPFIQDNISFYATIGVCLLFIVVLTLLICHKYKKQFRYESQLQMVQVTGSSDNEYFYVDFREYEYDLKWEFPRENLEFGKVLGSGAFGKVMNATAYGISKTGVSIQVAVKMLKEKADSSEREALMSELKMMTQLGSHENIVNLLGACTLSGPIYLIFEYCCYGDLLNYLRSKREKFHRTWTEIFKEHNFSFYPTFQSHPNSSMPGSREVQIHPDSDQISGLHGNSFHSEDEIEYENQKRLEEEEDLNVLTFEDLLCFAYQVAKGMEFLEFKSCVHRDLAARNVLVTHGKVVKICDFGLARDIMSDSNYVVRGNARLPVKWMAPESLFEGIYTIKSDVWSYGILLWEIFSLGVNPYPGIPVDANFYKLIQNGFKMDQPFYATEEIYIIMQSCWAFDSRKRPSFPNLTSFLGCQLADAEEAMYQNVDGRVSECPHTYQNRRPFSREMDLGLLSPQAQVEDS

[6] = molecular target: Receptor-type tyrosine-protein kinase FLT3 (Homo sapiens) (UniProt P36888); assay: Inhibition of human Flt3 assessed as remaining activity at 1 uM after 40 mins in presence of [gamma33P-ATP] by scintillation counting
[7] = molecular target: Tyrosine-protein kinase Fyn (Homo sapiens) (UniProt P06241); assay: Inhibition of human Fyn assessed as remaining activity at 0.1 uM after 40 mins in presence of [gamma33P-ATP] by scintillation counting
Tyrosine-protein kinase Fyn (Homo sapiens), sequence (P06241 2-537 limits assumed): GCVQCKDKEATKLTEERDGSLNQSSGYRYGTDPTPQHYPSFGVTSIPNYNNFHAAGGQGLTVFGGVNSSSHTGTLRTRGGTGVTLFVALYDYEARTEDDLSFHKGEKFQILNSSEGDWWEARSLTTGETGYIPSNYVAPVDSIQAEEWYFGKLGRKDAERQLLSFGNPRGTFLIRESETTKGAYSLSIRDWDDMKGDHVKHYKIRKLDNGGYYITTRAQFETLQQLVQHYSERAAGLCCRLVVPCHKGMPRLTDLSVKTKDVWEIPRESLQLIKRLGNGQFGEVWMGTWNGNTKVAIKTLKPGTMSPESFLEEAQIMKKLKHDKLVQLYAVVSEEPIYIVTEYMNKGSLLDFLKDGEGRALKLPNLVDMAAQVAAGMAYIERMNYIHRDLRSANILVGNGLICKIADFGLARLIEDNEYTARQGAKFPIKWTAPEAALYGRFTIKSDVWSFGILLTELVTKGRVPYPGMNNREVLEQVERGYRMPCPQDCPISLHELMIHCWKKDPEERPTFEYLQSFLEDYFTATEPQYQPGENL

[8] = molecular target: Tyrosine-protein kinase Fyn (Homo sapiens) (UniProt P06241); assay: Inhibition of human Fyn assessed as remaining activity at 1 uM after 40 mins in presence of [gamma33P-ATP] by scintillation counting
[9] = molecular target: Tyrosine-protein kinase Lck (Homo sapiens) (UniProt P06239); assay: Inhibition of human Lck assessed as remaining activity at 0.1 uM after 40 mins in presence of [gamma33P-ATP] by scintillation counting
Tyrosine-protein kinase Lck (Homo sapiens), sequence (P06239 2-509 limits assumed): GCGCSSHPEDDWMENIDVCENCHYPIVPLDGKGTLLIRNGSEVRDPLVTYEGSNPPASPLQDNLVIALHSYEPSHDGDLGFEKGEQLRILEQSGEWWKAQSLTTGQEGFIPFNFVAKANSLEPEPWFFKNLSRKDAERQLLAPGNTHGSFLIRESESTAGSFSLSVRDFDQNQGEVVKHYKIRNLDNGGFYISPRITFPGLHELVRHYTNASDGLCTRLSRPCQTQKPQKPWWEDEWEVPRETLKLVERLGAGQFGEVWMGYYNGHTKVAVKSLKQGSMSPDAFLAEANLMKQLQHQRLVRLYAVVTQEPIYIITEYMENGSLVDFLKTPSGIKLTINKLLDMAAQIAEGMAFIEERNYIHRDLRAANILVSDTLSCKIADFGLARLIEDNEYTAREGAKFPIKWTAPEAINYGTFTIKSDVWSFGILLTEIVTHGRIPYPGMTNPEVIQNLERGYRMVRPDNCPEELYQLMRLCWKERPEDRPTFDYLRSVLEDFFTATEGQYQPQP

[10] = molecular target: Tyrosine-protein kinase Lck (Homo sapiens) (UniProt P06239); assay: Inhibition of human Lck assessed as remaining activity at 1 uM after 40 mins in presence of [gamma33P-ATP] by scintillation counting
[11] = molecular target: Tyrosine-protein kinase Lyn (Homo sapiens) (UniProt P07948); assay: Inhibition of human Lyn assessed as remaining activity at 0.1 uM after 40 mins in presence of [gamma33P-ATP] by scintillation counting
Tyrosine-protein kinase Lyn (Homo sapiens), sequence (P07948 2-512 limits assumed): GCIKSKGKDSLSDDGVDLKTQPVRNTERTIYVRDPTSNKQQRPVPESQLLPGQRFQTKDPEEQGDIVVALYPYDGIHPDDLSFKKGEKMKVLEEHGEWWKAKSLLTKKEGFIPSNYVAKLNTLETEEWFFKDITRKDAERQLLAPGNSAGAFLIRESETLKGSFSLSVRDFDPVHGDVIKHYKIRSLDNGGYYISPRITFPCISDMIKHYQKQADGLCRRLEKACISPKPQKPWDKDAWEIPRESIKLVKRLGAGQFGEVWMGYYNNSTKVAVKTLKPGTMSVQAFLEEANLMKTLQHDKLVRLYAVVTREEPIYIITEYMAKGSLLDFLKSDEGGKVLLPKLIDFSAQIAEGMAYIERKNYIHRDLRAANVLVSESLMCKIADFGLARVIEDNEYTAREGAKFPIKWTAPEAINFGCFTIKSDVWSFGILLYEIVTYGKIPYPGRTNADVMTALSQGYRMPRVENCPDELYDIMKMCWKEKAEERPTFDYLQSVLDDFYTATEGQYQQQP

[12] = molecular target: BDNF/NT-3 growth factors receptor (Homo sapiens) (UniProt Q16620); assay: Inhibition of human TrkB assessed as remaining activity at 0.1 uM after 40 mins in presence of [gamma33P-ATP] by scintillation counting
[13] = molecular target: Tyrosine-protein kinase Yes (Homo sapiens) (UniProt P07947); assay: Inhibition of human Yes assessed as remaining activity at 0.1 uM after 40 mins in presence of [gamma33P-ATP] by scintillation counting
Tyrosine-protein kinase Yes (Homo sapiens), sequence (P07947 2-543 limits assumed): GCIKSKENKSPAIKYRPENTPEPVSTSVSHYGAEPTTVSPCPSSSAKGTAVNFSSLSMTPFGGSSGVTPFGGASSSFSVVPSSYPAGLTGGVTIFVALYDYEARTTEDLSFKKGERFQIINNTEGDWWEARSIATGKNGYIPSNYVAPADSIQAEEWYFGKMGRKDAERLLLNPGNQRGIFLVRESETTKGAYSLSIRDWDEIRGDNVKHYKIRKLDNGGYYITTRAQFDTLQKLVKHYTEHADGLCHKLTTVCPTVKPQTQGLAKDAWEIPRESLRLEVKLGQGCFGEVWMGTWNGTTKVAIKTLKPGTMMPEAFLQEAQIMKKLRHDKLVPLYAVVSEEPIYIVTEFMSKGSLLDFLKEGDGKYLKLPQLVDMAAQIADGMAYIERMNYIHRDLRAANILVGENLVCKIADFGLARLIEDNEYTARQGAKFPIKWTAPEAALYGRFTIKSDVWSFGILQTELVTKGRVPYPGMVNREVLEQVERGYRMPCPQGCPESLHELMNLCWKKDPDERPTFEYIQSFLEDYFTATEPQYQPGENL

[14] = molecular target: Tyrosine-protein kinase Yes (Homo sapiens) (UniProt P07947); assay: Inhibition of human Yes assessed as remaining activity at 1 uM after 40 mins in presence of [gamma33P-ATP] by scintillation counting
[15] = Cytotoxicity against human AU565 cells assessed as reduction in cell viability after 96 hrs by CellTiter-Glo luminescence assay or methylene blue assay; assay type: functional, cell-based; conditions: AU565, 96 h
[16] = Cytotoxicity against human MCF7 cells assessed as reduction in cell viability after 96 hrs by CellTiter-Glo luminescence assay or methylene blue assay; assay type: functional, cell-based; conditions: MCF7, 96 h
[17] = Cytotoxicity against human MDA-MB-231 cells expressing K-ras G13D mutant assessed as reduction in cell viability after 96 hrs by CellTiter-Glo luminescence assay or methylene blue assay; assay type: functional, cell-based; conditions: MDA-MB-231, 96 h
[18] = Cytotoxicity against human MDA-MB-435 cells expressing B-RAF V600E mutant assessed as reduction in cell viability after 96 hrs by CellTiter-Glo luminescence assay or methylene blue assay; assay type: functional, cell-based; conditions: MDA-MB-435, 96 h
[19] = Cytotoxicity against human DU4475 cells expressing B-RAF V600E mutant assessed as reduction in cell viability after 96 hrs by CellTiter-Glo luminescence assay or methylene blue assay; assay type: functional, cell-based; conditions: DU-4475, 96 h
[20] = Cytotoxicity against human SK-MEL-2 cells expressing N-ras Q61R mutant assessed as reduction in cell viability after 96 hrs by CellTiter-Glo luminescence assay or methylene blue assay; assay type: functional, cell-based; conditions: SK-MEL-2, 96 h
[21] = Cytotoxicity against human SK-MEL-3 cells expressing B-RAF V600E mutant assessed as reduction in cell viability after 96 hrs by CellTiter-Glo luminescence assay or methylene blue assay; assay type: functional, cell-based; conditions: SK-MEL3, 96 h
[22] = Cytotoxicity against human SK-MEL-31 cells expressing B-RAF V600E mutant assessed as reduction in cell viability after 96 hrs by CellTiter-Glo luminescence assay or methylene blue assay; assay type: functional, cell-based
[23] = Cytotoxicity against human LoVo cells expressing K-ras G13D mutant assessed as reduction in cell viability after 96 hrs by CellTiter-Glo luminescence assay or methylene blue assay; assay type: functional, cell-based
[24] = Cytotoxicity against human SW620 cells expressing K-ras G12V mutant assessed as reduction in cell viability after 96 hrs by CellTiter-Glo luminescence assay or methylene blue assay; assay type: functional, cell-based; conditions: SW-620, 96 h
[25] = Cytotoxicity against human COLO205 cells expressing B-RAF V600E mutant assessed as reduction in cell viability after 96 hrs by CellTiter-Glo luminescence assay or methylene blue assay; assay type: functional, cell-based; conditions: COLO 205, 96 h
[26] = Cytotoxicity against human HT-29 cells expressing B-RAF V600E mutant assessed as reduction in cell viability after 96 hrs by CellTiter-Glo luminescence assay or methylene blue assay; assay type: functional, cell-based; conditions: HT-29, 96 h
[27] = Cytotoxicity against human MIAPaCa2 cells expressing K-ras G12C mutant assessed as reduction in cell viability after 96 hrs by CellTiter-Glo luminescence assay or methylene blue assay; assay type: functional, cell-based; conditions: MIA PaCa-2, 96 h
[28] = Cytotoxicity against human MES-SA/Dx5-Rx1 cells assessed as reduction in cell viability after 96 hrs by CellTiter-Glo luminescence assay or methylene blue assay; assay type: functional, cell-based
[29] = Antiproliferative activity against human HL60 cells after 96 hrs by MTT assay; assay type: functional, cell-based; conditions: HL-60, 96 h
[30] = Antiproliferative activity against human THP1 cells after 96 hrs by MTT assay; assay type: functional, cell-based; conditions: THP-1, 96 h
[31] = Antiproliferative activity against human K562 cells after 96 hrs by MTT assay; assay type: functional, cell-based; conditions: K562, 96 h
[32] = Antiproliferative activity against human U266 cells after 96 hrs by MTT assay; assay type: functional, cell-based; conditions: U-266, 96 h
[33] = Antiproliferative activity against human NALM6 cells after 96 hrs by MTT assay; assay type: functional, cell-based; conditions: NALM-6, 96 h
[34] = test system: Receptor-type tyrosine-protein kinase FLT3 (Homo sapiens), P36888 [UNDEFINED MUTATION]; assay: Inhibition of Flt-3 activation mutant phosphorylation in human MV4-11 cells after 24 hrs by Western blot analysis; assay type: cell-based
Receptor-type tyrosine-protein kinase FLT3 (Homo sapiens), P36888 [UNDEFINED MUTATION], sequence (P36888 whole entry, looked up, stated change not applied): as the sequence (P36888 whole entry) above

[35] = Antiproliferative activity against human MV4-11 cells expressing Flt-3 activation mutant after 96 hrs by CellTiter-Glo luminescence assay; assay type: functional, cell-based; conditions: MV4-11, 96 h
[36] = molecular target: Nuclear factor NF-kappa-B complex (Homo sapiens) (UniProt Q00653+P19838+Q04206); assay: Inhibition of NFkappaB (unknown origin); assay type: protein-complex assay

Tyrosine-protein kinase ABL1 (Homo sapiens), sequence (P00519 whole entry): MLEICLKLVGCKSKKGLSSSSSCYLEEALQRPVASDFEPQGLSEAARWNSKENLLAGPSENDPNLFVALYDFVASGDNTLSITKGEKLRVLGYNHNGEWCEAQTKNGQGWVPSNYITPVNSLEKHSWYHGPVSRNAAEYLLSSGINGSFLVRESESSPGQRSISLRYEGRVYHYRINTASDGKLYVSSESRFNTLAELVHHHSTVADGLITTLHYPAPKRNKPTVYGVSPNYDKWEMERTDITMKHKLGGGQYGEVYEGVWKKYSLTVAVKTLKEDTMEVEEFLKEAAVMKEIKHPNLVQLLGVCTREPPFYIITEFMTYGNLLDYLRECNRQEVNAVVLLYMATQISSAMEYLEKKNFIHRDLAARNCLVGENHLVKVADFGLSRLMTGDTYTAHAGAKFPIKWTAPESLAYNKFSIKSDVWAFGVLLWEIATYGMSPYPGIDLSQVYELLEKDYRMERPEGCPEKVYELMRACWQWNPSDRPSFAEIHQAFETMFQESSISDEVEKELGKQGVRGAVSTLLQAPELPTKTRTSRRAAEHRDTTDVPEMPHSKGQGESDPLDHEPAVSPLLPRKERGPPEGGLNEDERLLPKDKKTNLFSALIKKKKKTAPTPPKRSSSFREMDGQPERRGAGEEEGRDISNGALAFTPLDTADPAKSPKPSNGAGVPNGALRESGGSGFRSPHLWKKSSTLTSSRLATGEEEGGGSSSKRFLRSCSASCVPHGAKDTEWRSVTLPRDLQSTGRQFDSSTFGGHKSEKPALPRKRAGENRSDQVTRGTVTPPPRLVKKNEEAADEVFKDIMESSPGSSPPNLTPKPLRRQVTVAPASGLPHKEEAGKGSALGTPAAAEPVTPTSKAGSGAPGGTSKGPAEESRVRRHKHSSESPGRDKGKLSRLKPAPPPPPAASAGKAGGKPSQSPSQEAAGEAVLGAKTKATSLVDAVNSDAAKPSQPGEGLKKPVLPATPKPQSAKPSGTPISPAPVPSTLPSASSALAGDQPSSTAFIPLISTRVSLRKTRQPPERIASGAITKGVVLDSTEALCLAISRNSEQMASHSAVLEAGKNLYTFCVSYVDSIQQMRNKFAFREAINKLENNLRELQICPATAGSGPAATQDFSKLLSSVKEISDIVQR

Compound `CCNc1cc(O)c2c(c1)/C=C/C[C@H](O)[C@H](O)C(=O)/C=C\[C@@H](C)[C@H](C)OC2=O` [E-6201] has an Activity [1] of 51%, an Activity [2] of 15% and an Activity [3] of 31%. For the same compound, the Activity [4] was 1%, the Activity [5] was 33% and the Activity [6] was 6%. For the same compound, the Activity [7] was 24%, the Activity [8] was 0% and the Activity [9] was 27%. It also gave an Activity [10] of 0%, an Activity [11] of 45% and an Activity [12] of 24%. For the same compound, the Activity [13] was 54%, the Activity [14] was 8% and the IC50 [15] was > 10000 nM. For the same compound, the IC50 [16] was > 10000 nM, the IC50 [17] was 156 nM and the IC50 [18] was 71 nM. The IC50 [19] was 52 nM, the IC50 [20] was 135 nM and the IC50 [21] was 24 nM. For the same compound, the IC50 [22] was 225 nM, the IC50 [23] was 132 nM and the IC50 [24] was 282 nM. For the same compound, the IC50 [25] was 43 nM, the IC50 [26] was 84 nM and the IC50 [27] was 734 nM. The IC50 [28] was 1590 nM, the IC50 [29] was 60 nM and the IC50 [30] was 120 nM. For the same compound, the IC50 [31] was 1800 nM, the IC50 [32] was 950 nM and the IC50 [33] was 620 nM. For the same compound, the inhibition [34] was “Dose-dependent effect”, the IC50 [35] was 8.2 nM and the inhibition [36] was “Active”.

— ChEMBL document CHEMBL3880411, “Multikinase inhibitors for use in the treatment of cancer” (2009)
